Earlier results as cited in patent publication US6713027B2, “Ozonator for sterilizing, decontaminating, disinfecting, and/or sanitizing surgical instruments” (Electroclave, priority 2001, dated 2004).

System: pathogenic bacteria and viruses
Conditions: in water; compared with chlorine

O=[O+][O-] [O3, ozone]
rate of eliminating pathogenic bacteria and viruses from water relative to Cl (chlorine): 3,125 times
